One experiment relates to H1975(L858R/T790M). The experiment can be described thus: H1975 cells proliferation assay. It is filed as cell-based. To be noted: for IC50: Homo sapiens, NCI-H1975, cell proliferation, 72 h, CellTiter Glo, read-out: H1975 IC50; for inhibition of double mutant (L858R/T790M): summary in words of Table 2. The procedure, abridged: (§1)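 HCC827 (2500 cells/well) and H1975 (2000 cells/well) cells seeded in 96-well plates and exposed to compounds for 72 h at 37° C, 5% CO2; 0.5% DMSO medium as blank. Viability by CellTiter-Glo luminescence; IC50 from four-parameter logistic fit.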
(In general: ATP-based viability assays read luminescence as a measure of living cells.)

Experiment [1] deals with T1, Ba/F3-L858R/T790M/C797S (Homo sapiens, UniProt P00533, T790M/C797S/L858R, cells depend on it).
T1 construct: BaF3 L858R/T790M/C797S IC50; other: cell proliferation, 72 h, CellTiter Glo; class symbols; numeric values
The experiment can be described thus: Ba/F3-L858R/T790M/C797S cells proliferation assay. It is filed as cell-based. To be noted: cell proliferation, 72 h, CellTiter Glo, read-out: BaF3 L858R/T790M/C797S IC50. The protocol:
(§2) a) The medium was preheated in a 37 water bath in advance.
(§3) b) Remove the cryogenic vials from the liquid nitrogen tank, quickly put it into a 37° C. water bath, and completely melt it in 1 min.
(§4) c) Transfer the cell suspension to a 15 mL centrifuge tube containing 8 mL medium, centrifuge 1000 rpm, 5 min,
(§5) d) Discard the supernatant, resuspend the cells in 1 mL medium, and transfer to a 75 cm^2 flask containing 15 mL medium, culture the cells in an incubator at 37° C., 5% CO2.
(§6) a) The medium was preheated in a 37° C.; water bath in advance.
(§7) b) Collect cell to a 15 mL centrifuged tube, centrifuge at 1000 rpm for 5 min. Discard the supernatant, count, and make the cell density at 1×10^4 cells/mL, then place it in a 37° C., 5% CO2 incubator.
(§8) b) The above compound solution was diluted 1:20 times with culture medium to prepare a 10 fold working solution;
(§9) a) Take cells in log phase growth, centrifuge at 1000 rpm for 5 min, then resuspend the cells with culture medium, then count cells;
(§10) b) Cells were seeded to 96-well cell culture plate with density at 2000 cells/well;
(§11) The blank control well was a culture medium (0.5% DMSO);
(§12) b) The cells were incubated for an additional 72 h in the incubator.
(§13) a) Remove the 96-well cell culture plate and add 50 μl of CTG reagent (CellTiter Glo kit, promega, Cat #G7573).
(§14) b) Plate was shaked for 2 min and then let it cool for 10 min at room temperature.
(§15) c) The Luminescence signal value was read using a PerkinElmer reader.
(§16) Experimental Data Analysis
(§17) Data were analyzed using GraphPad Prism 6.0 software to obtain a fitted curve of compound activity.
(§18) Y=Bottom+(Top−Bottom)/(1+10^((Log IC50−X)*Hill Slope));
(§19) The cells proliferation assay results are expressed with IC50, shown as Table 2.

Experiment [2] deals with T2, Ba/F3-L858R/T790M/C797S (Homo sapiens, UniProt P00533, T790M/C797S, cells depend on it, form not given).
T2 construct: covers both
The experiment can be described thus: Ba/F3-L858R/T790M/C797S cells proliferation assay. To be noted: summary in words of Table 2; covers both Ba/F3 triple mutant lines. It is filed as cell-based. The protocol: as §2, §3, §4, §5, §6, §7, §8, §9, §10, §11, §12, §13, §14, §15, §16, §17, §18, §19

The test system of another experiment is HCC827(Δ19del). The experiment can be described thus: HCC827 cells proliferation assay. To be noted: Homo sapiens, HCC827, cell proliferation, 72 h, CellTiter Glo, read-out: HCC827 IC50. Type of experiment: cell-based. In outline:
as §1

In another experiment the target is Ba/F3-Δ19del/T790M/C797S (Homo sapiens, UniProt P00533, T790M/C797S, cells depend on it, form not given). The experiment can be described thus: Ba/F3-Δ19del/T790M/C797S cells proliferation assay. Type of experiment: cell-based. The note with it: cell proliferation, 72 h, CellTiter Glo, read-out: BaF3 Δ 19del/T790M/C797S IC50. The protocol: as §2, §3, §4, §5, §6, §7, §8, §9, §10, §11, §12, §13, §14, §15, §16, §17, §18, §19

A further experiment addresses EGFR T790M/L858R (Homo sapiens, UniProt P00533, L858R/T790M). The experiment can be described thus: Kinase assay (mobility shift) for EGFR T790M/L858R. It is filed as biochemical.
The target of a further experiment is EGFR L858R (Homo sapiens, UniProt P00533, L858R). The experiment can be described thus: Kinase assay (mobility shift) for EGFR L858R. It is filed as biochemical.
The next experiment addresses EGFR Δ19del/T790M/C797S (Homo sapiens, UniProt P00533, T790M/C797S, form not given). The experiment can be described thus: Kinase assay (mobility shift) for EGFR Δ19del/T790M/C797S. Type of experiment: biochemical. To be noted: read-out: EGFR Δ 19del/T790M/C797S IC50.

Like-named read-outs stand apart in the source and are kept apart here. Bounds are passed on as bounds.

Chain of EGFR L858R (P00533 25-1210 L858R): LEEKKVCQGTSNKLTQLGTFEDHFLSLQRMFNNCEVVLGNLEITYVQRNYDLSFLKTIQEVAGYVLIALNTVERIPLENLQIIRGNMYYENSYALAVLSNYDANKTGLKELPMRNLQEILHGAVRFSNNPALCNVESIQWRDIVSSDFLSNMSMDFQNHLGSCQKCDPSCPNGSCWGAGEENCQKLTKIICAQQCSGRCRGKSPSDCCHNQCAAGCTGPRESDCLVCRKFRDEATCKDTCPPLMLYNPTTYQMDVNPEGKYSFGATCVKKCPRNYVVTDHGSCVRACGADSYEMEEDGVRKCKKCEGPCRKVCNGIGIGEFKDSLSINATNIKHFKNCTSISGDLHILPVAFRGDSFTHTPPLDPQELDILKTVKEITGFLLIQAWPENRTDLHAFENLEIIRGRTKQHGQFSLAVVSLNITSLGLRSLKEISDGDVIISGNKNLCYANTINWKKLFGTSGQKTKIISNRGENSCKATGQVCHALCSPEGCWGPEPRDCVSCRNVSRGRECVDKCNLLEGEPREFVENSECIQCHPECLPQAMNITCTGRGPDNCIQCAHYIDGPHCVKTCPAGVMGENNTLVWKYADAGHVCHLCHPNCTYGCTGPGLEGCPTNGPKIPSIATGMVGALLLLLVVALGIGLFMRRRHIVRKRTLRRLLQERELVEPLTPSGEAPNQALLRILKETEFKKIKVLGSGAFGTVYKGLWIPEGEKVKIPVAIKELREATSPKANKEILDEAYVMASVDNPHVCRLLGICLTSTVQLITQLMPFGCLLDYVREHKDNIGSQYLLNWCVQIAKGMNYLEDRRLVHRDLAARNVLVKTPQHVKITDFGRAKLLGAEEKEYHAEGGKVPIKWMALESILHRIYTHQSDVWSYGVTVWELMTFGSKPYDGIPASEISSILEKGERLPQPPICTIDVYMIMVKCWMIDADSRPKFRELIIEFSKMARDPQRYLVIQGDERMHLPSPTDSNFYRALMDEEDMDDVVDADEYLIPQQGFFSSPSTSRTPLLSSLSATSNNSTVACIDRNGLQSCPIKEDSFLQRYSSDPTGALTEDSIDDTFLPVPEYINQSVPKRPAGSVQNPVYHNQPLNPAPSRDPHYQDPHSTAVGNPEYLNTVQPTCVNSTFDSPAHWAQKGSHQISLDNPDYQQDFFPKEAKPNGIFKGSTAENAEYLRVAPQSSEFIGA
Chain of EGFR T790M/L858R (P00533 25-1210 T790M/L858R): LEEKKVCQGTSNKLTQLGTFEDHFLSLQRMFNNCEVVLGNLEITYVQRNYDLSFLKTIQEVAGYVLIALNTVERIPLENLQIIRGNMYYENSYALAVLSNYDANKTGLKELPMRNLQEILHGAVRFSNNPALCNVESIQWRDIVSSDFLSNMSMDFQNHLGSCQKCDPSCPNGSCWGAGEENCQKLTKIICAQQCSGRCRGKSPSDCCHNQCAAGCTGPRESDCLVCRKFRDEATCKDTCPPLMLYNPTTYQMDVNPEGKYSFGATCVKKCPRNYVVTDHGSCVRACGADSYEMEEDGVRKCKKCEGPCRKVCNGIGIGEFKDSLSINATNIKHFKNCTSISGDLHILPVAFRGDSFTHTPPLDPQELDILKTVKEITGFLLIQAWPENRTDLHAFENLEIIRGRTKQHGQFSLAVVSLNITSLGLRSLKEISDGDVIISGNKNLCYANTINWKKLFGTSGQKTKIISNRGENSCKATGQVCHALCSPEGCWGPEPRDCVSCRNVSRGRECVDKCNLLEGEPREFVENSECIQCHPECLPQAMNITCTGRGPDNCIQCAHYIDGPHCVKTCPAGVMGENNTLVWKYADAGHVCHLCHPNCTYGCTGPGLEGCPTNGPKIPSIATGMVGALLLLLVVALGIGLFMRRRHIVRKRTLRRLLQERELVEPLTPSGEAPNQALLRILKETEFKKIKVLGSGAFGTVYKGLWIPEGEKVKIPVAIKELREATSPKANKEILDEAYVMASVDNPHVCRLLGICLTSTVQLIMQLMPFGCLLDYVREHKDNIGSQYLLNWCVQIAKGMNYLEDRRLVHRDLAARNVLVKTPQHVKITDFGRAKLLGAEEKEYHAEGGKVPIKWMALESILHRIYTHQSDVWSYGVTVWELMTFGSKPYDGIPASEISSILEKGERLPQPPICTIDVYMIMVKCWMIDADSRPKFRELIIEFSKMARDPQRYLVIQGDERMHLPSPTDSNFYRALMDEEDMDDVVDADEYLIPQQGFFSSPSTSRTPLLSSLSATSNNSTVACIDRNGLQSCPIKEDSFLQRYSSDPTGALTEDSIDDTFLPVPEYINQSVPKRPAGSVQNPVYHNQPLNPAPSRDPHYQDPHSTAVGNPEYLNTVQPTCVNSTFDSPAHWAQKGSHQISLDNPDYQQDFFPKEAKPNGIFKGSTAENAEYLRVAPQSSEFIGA
T1 sequence (P00533 whole entry T790M/C797S/L858R): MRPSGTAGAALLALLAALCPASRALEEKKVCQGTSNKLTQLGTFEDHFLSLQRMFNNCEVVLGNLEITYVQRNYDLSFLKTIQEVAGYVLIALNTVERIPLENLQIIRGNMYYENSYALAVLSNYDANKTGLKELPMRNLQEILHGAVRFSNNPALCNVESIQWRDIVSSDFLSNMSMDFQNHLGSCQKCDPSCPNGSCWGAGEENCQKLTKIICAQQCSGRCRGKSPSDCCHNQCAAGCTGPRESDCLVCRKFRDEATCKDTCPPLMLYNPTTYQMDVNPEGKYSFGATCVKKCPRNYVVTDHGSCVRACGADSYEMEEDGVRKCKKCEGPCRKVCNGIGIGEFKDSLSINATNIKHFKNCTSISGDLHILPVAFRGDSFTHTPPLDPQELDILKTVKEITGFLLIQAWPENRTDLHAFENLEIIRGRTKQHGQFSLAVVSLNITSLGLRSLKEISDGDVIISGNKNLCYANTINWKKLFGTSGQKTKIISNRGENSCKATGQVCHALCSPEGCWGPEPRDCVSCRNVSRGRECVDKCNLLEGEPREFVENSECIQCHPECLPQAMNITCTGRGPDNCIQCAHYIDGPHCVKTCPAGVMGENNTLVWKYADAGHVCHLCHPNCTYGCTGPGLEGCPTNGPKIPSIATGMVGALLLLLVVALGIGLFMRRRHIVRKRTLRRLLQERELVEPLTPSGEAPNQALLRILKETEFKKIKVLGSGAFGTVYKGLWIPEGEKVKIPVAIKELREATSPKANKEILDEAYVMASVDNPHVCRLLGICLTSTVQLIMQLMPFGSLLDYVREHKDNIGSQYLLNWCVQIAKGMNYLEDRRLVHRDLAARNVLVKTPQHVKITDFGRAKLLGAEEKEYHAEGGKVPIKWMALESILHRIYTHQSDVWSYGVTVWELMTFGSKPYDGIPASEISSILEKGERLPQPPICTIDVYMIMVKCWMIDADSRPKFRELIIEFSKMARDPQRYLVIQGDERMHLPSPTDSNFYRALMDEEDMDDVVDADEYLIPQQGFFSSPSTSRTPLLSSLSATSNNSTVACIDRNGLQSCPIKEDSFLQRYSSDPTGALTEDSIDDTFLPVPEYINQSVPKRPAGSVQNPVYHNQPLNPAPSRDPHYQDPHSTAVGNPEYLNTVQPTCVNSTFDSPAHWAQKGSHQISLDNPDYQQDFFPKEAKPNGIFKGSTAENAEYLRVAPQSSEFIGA
T2 sequence (P00533 whole entry T790M/C797S/L858R, form open): as the sequence (P00533 whole entry T790M/C797S/L858R) above

In the case of `CCN1CC2(C1)CN(c1ccc(Nc3ncc(Cl)c(Nc4ccccc4P(C)(C)=O)n3)cc1C)C2` [Comparative compound A, (2-((5-chloro-2-((4-(6-ethyl-2,6-diazaspiro[3.3]heptan-2-yl)-3-methylphenyl)amino)pyrimidin-4-yl)amino)phenyl)dimethylphosphine oxide, reference compound], the IC50 in the experiment on H1975(L858R/T790M) (numeric values) stood at 61.7 nM; in the experiment on HCC827(Δ19del) (numeric values) it was 89.5 nM. Also, the “inhibition of double mutant (L858R/T790M)” value in the experiment with H1975(L858R/T790M) is given as “relatively low inhibition”. Also, the GI50 on Ba/F3-L858R/T790M/C797S [1] (class symbols) and at Ba/F3-Δ19del/T790M/C797S (class symbols) was less than 10 nM in each case. Moreover, the “inhibition of triple mutant (L858R/T790M/C797S or Δ19del/T790M/C797S)” value on Ba/F3-L858R/T790M/C797S [2] is listed as “higher inhibition”.
As for `COc1cc(N2CCC(N3CCN(C)CC3)CC2)c(C)cc1Nc1ncc(Br)c(Nc2ccc3nccnc3c2P(C)(C)=O)n1` [Comparative compound C, (6-((5-bromo-2-((2-methoxy-5-methyl-4-(4-(4-methylpiperazin-1-yl)piperidin-1-yl)phenyl)amino)pyrimidin-4-yl)amino)quinoxalin-5-yl)dimethylphosphine oxide, reference compound], the IC50 in the experiment on H1975(L858R/T790M) (numeric values) was determined as 71.4 nM. In addition, the “inhibition of double mutant (L858R/T790M)” value in the experiment on H1975(L858R/T790M) is “relatively low inhibition”. Also, the GI50 on Ba/F3-L858R/T790M/C797S [1] (numeric values) came to 16.8 nM; at Ba/F3-Δ19del/T790M/C797S (numeric values) it was 9.6 nM. The “inhibition of triple mutant (L858R/T790M/C797S or Δ19del/T790M/C797S)” value at Ba/F3-L858R/T790M/C797S [2] is “higher inhibition”.
For `CCc1cc(Nc2ncc(Br)c(Nc3ccc4nccnc4c3P(C)(C)=O)n2)c(OC)cc1N1CCC(N2CCN(C)CC2)CC1` [Comparative compound D, (6-((5-bromo-2-((5-ethyl-2-methoxy-4-(4-(4-methylpiperazin-1-yl)piperidin-1-yl)phenyl)amino)pyrimidin-4-yl)amino)quinoxalin-5-yl)dimethylphosphine oxide, reference compound] the same measures were 83.6 nM, “relatively low inhibition”, 12.9 nM, 5.7 nM and “higher inhibition”.
In the case of `C=CC(=O)Nc1cc(Nc2ncc(Cl)c(Nc3ccccc3P(C)(C)=O)n2)ccc1N1CCC(N2CCN(C)CC2)CC1` [Compound 16, N-(5-((5-chloro-4-((2-(dimethylphosphoryl)phenyl)amino)pyrimidin-2-yl)amino)-2-(4-(4-methylpiperazin-1-yl)piperidin-1-yl)phenyl)acrylamide], the IC50 was less than 10 nM at EGFR T790M/L858R; less than 10 nM with H1975(L858R/T790M) (class symbols); less than 10 nM on EGFR L858R; 10 to 50 nM in the experiment on HCC827(Δ19del) (class symbols); less than 10 nM on EGFR Δ19del/T790M/C797S. Moreover, the GI50 on Ba/F3-L858R/T790M/C797S [1] (class symbols) and on Ba/F3-Δ19del/T790M/C797S (class symbols) was 10 to 50 nM in each case.
On to `C=CC(=O)Nc1cc(Nc2ncc(Cl)c(Nc3ccccc3P(C)(C)=O)n2)ccc1N1CCN2CCC[C@H]2C1` [Compound 17, (S)—N-(5-((5-chloro-4-((2-(dimethylphosphoryl)phenyl)amino)pyrimidin-2-yl)amino)-2-(hexahydropyrrolo[1,2-a]pyrazin-2(1H)-yl)phenyl)acrylamide], for which the IC50 is less than 10 nM on EGFR T790M/L858R; 10 to 50 nM with H1975(L858R/T790M) (class symbols); less than 10 nM on EGFR L858R; 10 to 50 nM in the experiment with HCC827(Δ19del) (class symbols); less than 10 nM at EGFR Δ19del/T790M/C797S. The GI50 on Ba/F3-L858R/T790M/C797S [1] (class symbols) and at Ba/F3-Δ19del/T790M/C797S (class symbols) was 10 to 50 nM each time.
Consider `C=CC(=O)Nc1cc(Nc2ncc(Cl)c(Nc3ccccc3P(C)(C)=O)n2)ccc1N(C)CCN1CCCC1` [Compound 18, N-(5-((5-chloro-4-((2-(dimethylphosphoryl)phenyl)amino)pyrimidin-2-yl)amino)-2-(methyl(2-(pyrrolidin-1-yl)ethyl)amino)phenyl)acrylamide], for which the IC50 at EGFR T790M/L858R, in the experiment with H1975(L858R/T790M) (class symbols), on EGFR L858R, in the experiment on HCC827(Δ19del) (class symbols) and on EGFR Δ19del/T790M/C797S was less than 10 nM each time. Further, the GI50 on Ba/F3-L858R/T790M/C797S [1] (class symbols) and on Ba/F3-Δ19del/T790M/C797S (class symbols) was 10 to 50 nM each time.
In the case of `C=CC(=O)Nc1cc(Nc2ncc(Cl)c(Nc3ccccc3P(C)(C)=O)n2)ccc1N1CCC2(CC1)CC(N(C)C)C2` [Compound 36, N-(5-((5-chloro-4-((2-(dimethylphosphoryl)phenyl)amino)pyrimidin-2-yl)amino)-2-(2-(dimethylamino)-7-azaspiro[3.5]nonan-7-yl)phenyl)acrylamide], the IC50 on EGFR T790M/L858R, in the experiment on H1975(L858R/T790M) (class symbols), at EGFR L858R, with HCC827(Δ19del) (class symbols) and on EGFR Δ19del/T790M/C797S was less than 10 nM throughout. For the same molecule, the GI50 on Ba/F3-L858R/T790M/C797S [1] (class symbols) and on Ba/F3-Δ19del/T790M/C797S (class symbols) was less than 10 nM in each case.

Source of the values: patent publication US20220227796A1, “EGFR INHIBITORS, COMPOSITIONS AND METHODS THERE OF” (Betta Pharmaceuticals Co., Ltd., priority 2019, published 2022).
